Tested on: benzodiazepine receptors
Assay: in vivo displacement of radioactive labelled flunitrazepam from benzodiazepine receptors
Conditions: dose which causes the specific binding of flunitrazepam to benzodiazepine receptors in a living brain to be reduced to 50% of the control value; test as described in US 4,774,245
Description: The pharmaceutical properties of the compounds of the invention can be illustrated by determining their capability for displacing radioactive labelled flunitrazepam from benzodiazepine receptors.
The displacement activity of the compounds of the invention may be found by determining the ED50 value. The ED50 value represents the dose (mg/kg) of a test substance which causes the specific binding of flunitrazepam to benzodiazepine receptors in a living brain to be reduced to 50% of the control value.
Such an in vivo test is carried out as described in US 4,774,245.

Q: `CN(C)c1nc2ccccc2n2cnc(-c3noc(C4CC4)n3)c12.Cl` [Compound 4, 3-(5-cyclopropyl-1,2,4-oxadiazol-3-yl)-4-dimethylamino-imidazo[1,5-a]quinoxaline hydrochloride] was tested. Which ED50 did it give?
A: 4.1 mg/kg

Q: Which ED50 does the source give for `CN(C)c1nc2c(-c3noc(C4CC4)n3)ncn2c2ccccc12` [Compound 13, 3-(5-cyclopropyl-1,2,4-oxadiazol-3-yl)-5-dimethylamino-imidazo[1,5-a]quinazoline] here?
A: 1.5 mg/kg

Q: `c1ccc2c(c1)c(N1CCOCC1)nc1c(-c3noc(C4CC4)n3)ncn12` [Compound 14, 3-(5-cyclopropyl-1,2,4-oxadiazol-3-yl)-5-morpholino-imidazo[1,5-a]quinazoline] was tested. Which ED50 did it give?
A: 1.9 mg/kg

Q: With `c1ccc2c(c1)c(N1CCOCC1)nc1c(-c3nc(C4CC4)no3)ncn12` [Compound 19, 3-(3-cyclopropyl-1,2,4-oxadiazol-5-yl)-5-morpholino-imidazo[1,5-a]quinazoline] as the molecule, how does the ED50 read?
A: 1.6 mg/kg

Reference: patent EP0535104B1, “HETEROCYCLIC COMPOUNDS AND THEIR PREPARATION AND USE” (NOVO NORDISK A/S, priority 1990, dated 1992)
